In patent US20220154204A1, “ENHANCING DROUGHT, SALINITY AND COLD TOLERANCE IN PLANTS AND TREES” (The Regents of the University of California, priority 2019, published 2022):

Tests used:
OST1/SnRK2.6 [1] = target: T1, OST1/SnRK2.6 (Arabidopsis thaliana, UniProt Q940H6); experiment: In vitro phosphorylation assay of CIAP-dephosphorylated GST-OST1/SnRK2.6 with other protein kinases; type: biochemical; settings: GST-OST1/SnRK2.6 dephosphorylated by CIAP, [γ-32P]-ATP
T1 construct: made in house; host or cells: E. coli
T1 sequence (Q940H6 1-362): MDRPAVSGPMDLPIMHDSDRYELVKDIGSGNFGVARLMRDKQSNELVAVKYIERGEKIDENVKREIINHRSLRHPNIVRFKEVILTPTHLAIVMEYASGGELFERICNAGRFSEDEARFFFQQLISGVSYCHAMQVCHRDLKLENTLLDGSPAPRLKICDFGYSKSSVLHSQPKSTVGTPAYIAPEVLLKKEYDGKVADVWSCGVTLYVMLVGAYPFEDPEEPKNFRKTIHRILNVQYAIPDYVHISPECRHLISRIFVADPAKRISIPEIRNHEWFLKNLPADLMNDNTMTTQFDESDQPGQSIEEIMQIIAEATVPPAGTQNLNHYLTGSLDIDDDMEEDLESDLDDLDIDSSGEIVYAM
Protocol: We investigated phosphorylation of purified recombinant GST-tagged OST1/SnRK2.6 protein kinase after dephosphorylation in vitro. To test whether OST1/SnRK2.6 could be re-activated by autophosphorylation, after dephosphorylation, the GST-OST1/SnRK2.6 protein bound on glutathione sepharose 4B resin was incubated with calf intestinal alkaline phosphatase (CIAP), and [γ-^32P]-ATP was added to the reaction after wash out of CIAP. […] Therefore, another unknown protein kinase may be required for reversible ABA signal transduction.
10 μg GST-OST1/SnRK2.6 proteins were bound to glutathione sepharose 4B beads and incubated with 30 U CIAP for 2 hr at room temperature. […]
a, Seeds of amiR-HsMYO wild-type (control line) or amiR-ax1117 mutant were sowed on ½ MS medium containing 2 μM ABA, or 0.02% EtOH as control, for germination assays. Representative images showing seed germination after 6 days. b, The percentage of seedlings showing green cotyledons was analyzed. […] In-gel kinase assays were performed using histone type III-S as a substrate. e, SnRK2 band intensities as shown in (d) were measured using ImageJ, n=3 experiments, error bars show +/−s.e.m. f, Recombinant GST-OST1/SnRK2.6 protein was dephosphorylated by alkaline phosphatase in vitro and used for in vitro phosphorylation assays after incubation with CPK6, CPK23 or MPK12 protein kinases. […]

OST1/SnRK2.6 [2] = experiment: In vivo Ser-171 phosphorylation of OST1/SnRK2.6-GFP in mesophyll cell protoplasts by LC-MS/MS; type: cell-based, Arabidopsis; settings: 20 μM ABA for 15 min vs control
Protocol: 30 μg GST-OST1/SnRK2.6(D140A) and 2.5 μg GST-M3Kδ1 kinase domain were incubated in phosphorylation buffer (50 mM Tris-HCl pH 7.5, 10 mM MgCl2, 0.1% Triton X-100, and 1 mM DTT) with 1 mM ATP for 2 hr at room temperature. Proteins were precipitated by acetone precipitation and dissolved in SDS-PAGE loading buffer. After SDS-PAGE and CBB staining, protein bands of GST-OST1/SnRK2.6(D140A) were excised and analyzed by LC-MS/MS^17. For in vivo Ser-171 phosphorylation, OST1/SnRK2.6-GFP was transiently expressed in Arabidopsis mesophyll cell protoplasts. The protoplasts were incubated with or without 20 μM ABA for 15 min, and OST1/SnRK2.6 proteins were purified by immunoprecipitation using anti-GFP antibodies. After SDS-PAGE and CBB staining, OST1/SnRK2.6-GFP bands were excised and analyzed by LC-MS/MS^17
a, The sequence of identified phosphorylated peptide by mass spectrometry. OST1/SnRK2.6-GFP was expressed in Arabidopsis mesophyll cell protoplasts and purified by immunoprecipitation with GFP antibodies before or after 20 μM ABA treatment for 15 min. S(+79.97) indicates phosphorylated serine residues. Values (Control and ABA) indicate normalized peak areas for phosphorylated peptides. The phosphorylated peptide was not detected in the control sample.

S-type anion channels = experiment: Patch-clamp analyses of S-type anion channel currents in guard cell protoplasts; type: cell-based, Arabidopsis; settings: 10 μM, guard cells of wildtype (Col-0) and HsMYO control line
Protocol: Guard cell protoplasts from 4 to 6 week-old Arabidopsis plants were prepared^24,33 ABA-activated S-type anion channel current recordings were carried out by using an Axon 200A amplifier (Axon instruments) and a Digidata 1440A low-noise data acquisition system. Epidermal tissues were isolated from one or two rosette leaves and collected using a nylon mesh (100-μm pore size). […]
S-type anion currents in guard cell protoplasts were recorded using the whole-cell patch-clamp technique^24,33. […]
a, Leaves from m3k amiRNAi and the control amiRNA-HsMYO line (expressing an amiRNA targeting human myosin 2), which has no target gene in Arabidopsis plants were analyzed in time-resolved stomatal conductance analyses in which 1 μM ABA was added to the transpiration stream via the petiole (as described in e.g., Ceciliato, P. et al. Plant Methods 15, doi:10.1186/s13007-019-0423-y (2019)) as indicted by the red arrowhead (n=3 leaves from 3 independent plants per genotype, +/−s.d.). b, Normalized relative stomatal conductance to the first data point shown in (a). c-h, ABA-activated S-type anion channel currents were investigated by patch-clamp analyses using guard cell protoplasts from the wildtype parent Col-0 (c, d), the HsMYO amiRNA control line (e, f), and the m3k amiRNA line (g, h). […]

SLAC1 = experiment: Two-electrode voltage clamp recordings of SLAC1 currents in Xenopus oocytes; type: cell-based, Arabidopsis; settings: Xenopus oocytes co-injected with PYL9/RCAR1, ABI1, OST1/SnRK2.6, SLAC1 with or without M3Ks, 50 μM ABA
Text: The PCR amplified cDNA fragments of OST1, SLAC1, PYL9/RCAR1, ABI1, M3Kδ1, M3Kδ6 and M3Kδ7 were cloned into the oocyte expression vector pNB1 by using an advanced uracil-excision based cloning strategy as previously described^60. The mutant isoforms OST1-S171A, M3Kδ6-K775W and M3Kδ7-K740W were generated using the Quikchange Site-Directed Mutagenesis kit (Agilent Technologies). Linearized plasmids were used to generate cRNAs via the mMESSAGE mMACHINE® T7 kit (Thermo Fisher Scientific, Catalog number: AM1344). […] Steady state currents were recorded with 3 second voltage pulses ranging from +40 mV to −120 mV in −20 mV decrements, followed by a “tail” voltage of −120 mV and the holding potential was kept at 0 mV.
SLAC1-mediated currents in oocytes vary showing either time-dependent relaxation or more instantaneous currents when using a chloride bath solution^61,62. […] To avoid time-of-measurement and inter-batch dependence in the data, H2O-injected control and other indicated controls were included in each batch of oocytes and control experiments were recorded intermittently with the investigated conditions.
a and b, In vitro reconstitution of ABA-induced OST1/SnRK2 activation without M3Kδ6 (a) or with M3Kδ6 (b). […] Phosphorylation of AKS1 is detected by binding of 14-3-3Phi (At1g35160) to the phosphorylated AKS1 protein^15. […]

Row | Compound | phosphorylation of OST1/SnRK2.6 after dephosphorylation (OST1/SnRK2.6 [1]) | phosphorylation of OST1 Ser171 in mesophyll cells (OST1/SnRK2.6 [2]) | activation of S-type anion currents in guard cells (S-type anion channels) | ABA-dependent SLAC1 anion channel activation (SLAC1)
1 | CPK23: calcium-dependent protein kinase of ABA signalling | did not phosphorylate | – | – | –
2 | CC1=CC(=O)CC(C)(C)[C@@]1(O)/C=C/C(C)=C\C(=O)O [ABA, abscisic acid] | – | clearly phosphorylated | typical ABA activation of S-type anion currents | could activate SLAC1 in oocytes only in the presence of low concentrations of either M3Kδ1, M3Kδ6 or M3Kδ7 mRNAs
